Measured values reported in ChEMBL document CHEMBL1201862, “PubChem BioAssay data set” (2004).
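Where inhibition never reached the appropriate level, the endpoint shown equals the highest concentration tested. Otherwise, values were interpolated linearly from a five-concentration, 48-hour dose response in 96-well plates. Abbreviation: GI50, concentration required for 50% inhibition of growth.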 Calls of active or inactive are those of the source. Cut-off read from the data, not from the text of the source: active = GI50 up to about 1.1 µM and inactive = higher.

How the values were obtained:
Test in all cases: NCI tumour cell line growth inhibition, 48 h
A549 = test system: A549
SF-539 = test system: SF-539
OVCAR-5 = test system: OVCAR-5
HT-29 = test system: HT-29
HCT-15 = test system: HCT-15
SK-MEL-2 = test system: SK-MEL-2
HOP-92 = test system: HOP-92
TK-10 = test system: TK-10
SF-295 = test system: SF-295
M14 = test system: M14
SF-268 = test system: SF-268
KM12 = test system: KM12
HL-60 = test system: HL-60
CAKI-1 = test system: CAKI-1
SR = test system: SR

Measured: GI50

N/C(=N\O)N/N=C\c1c2ccccc2c(Cl)c2ccccc12
inactive: A549 2.99 µM | SF-539 9.62 µM | OVCAR-5 3.05 µM | HT-29 3.78 µM | SK-MEL-2 10.5 µM | HOP-92 3.16 µM | TK-10 11.8 µM | SF-295 2.75 µM | M14 12.1 µM | SF-268 7.5 µM | KM12 4.85 µM | HL-60 2.19 µM | CAKI-1 5.52 µM
5.82 µM: HCT-15

CC(=O)NN1C(=O)C(Cc2ccccc2)c2ccccc21 (stereo not drawn)
inactive: A549 > 100 µM | SF-539 > 100 µM | OVCAR-5 > 100 µM | HT-29 > 100 µM | SK-MEL-2 > 100 µM | HOP-92 > 100 µM | TK-10 > 100 µM | SF-295 > 100 µM | M14 > 100 µM | SF-268 > 100 µM | KM12 > 100 µM | CAKI-1 > 100 µM
> 100 µM: HCT-15

C=CCNC(=O)ON1C(=O)CCC1=O
inactive: A549 > 100 µM | SF-539 > 100 µM | OVCAR-5 > 100 µM | HT-29 > 100 µM | SK-MEL-2 > 100 µM | HOP-92 > 100 µM | TK-10 > 100 µM | SF-295 > 100 µM | M14 > 100 µM | SF-268 > 100 µM | KM12 > 100 µM | HL-60 > 100 µM
> 100 µM: HCT-15

C/C(CC(=O)NCCc1ccccc1)=N\NS(=O)(=O)c1ccc(C)cc1
inactive: A549 > 100 µM | SF-539 > 100 µM | OVCAR-5 > 100 µM | HT-29 > 100 µM | SK-MEL-2 > 100 µM | HOP-92 > 100 µM | TK-10 > 100 µM | SF-295 > 100 µM | M14 > 100 µM | SF-268 > 100 µM | KM12 > 100 µM | HL-60 > 100 µM

ClC1=C(Cl)C(Cl)(Cl)c2c3c(c4c(c21)C(Cl)(Cl)C(Cl)=C4Cl)C(Cl)(Cl)C(Cl)=C3Cl
inactive: A549 > 100 µM | SF-539 > 100 µM | HT-29 > 100 µM | SF-295 > 100 µM | M14 > 100 µM | SF-268 > 100 µM | KM12 > 100 µM | SR > 100 µM | HL-60 > 100 µM
> 100 µM: HCT-15

O=C1CCCCC1CN1CCCC1 (stereo not drawn)
> 100 µM: HCT-15
inactive: A549 > 100 µM | OVCAR-5 > 100 µM | HT-29 > 100 µM | SK-MEL-2 > 100 µM | TK-10 > 100 µM | SF-295 > 100 µM | M14 > 100 µM | SF-268 > 100 µM | KM12 > 100 µM | SR 38.7 µM | HL-60 > 10 µM

Nc1ccc(C(=O)NN2C(=O)C(Cl)C2c2ccccc2)cc1 (stereo not drawn)
inactive: A549 > 100 µM | SF-539 > 100 µM | OVCAR-5 > 100 µM | HT-29 > 100 µM | SK-MEL-2 > 100 µM | HOP-92 > 100 µM | TK-10 > 100 µM | SF-295 > 100 µM | M14 > 100 µM | SF-268 > 100 µM | KM12 > 100 µM | CAKI-1 > 100 µM
> 100 µM: HCT-15

Cc1ccc(Sc2cc([N+](=O)[O-])cc(Sc3ccc(C)cc3)c2Sc2ccc(C)cc2)cc1
inactive: A549 > 100 µM | SF-539 > 100 µM | OVCAR-5 > 100 µM | HT-29 > 100 µM | SK-MEL-2 > 100 µM | TK-10 > 100 µM | SF-295 > 100 µM | M14 > 100 µM | SF-268 > 100 µM | KM12 > 100 µM | HL-60 > 100 µM | CAKI-1 > 100 µM
> 100 µM: HCT-15

CC(=O)NC(CCCCNC(=O)OCc1ccccc1)C(=O)NCc1ccccc1 (stereo not drawn)
inactive: A549 > 100 µM | SF-539 > 100 µM | OVCAR-5 > 100 µM | HT-29 > 100 µM | SK-MEL-2 > 100 µM | HOP-92 > 100 µM | TK-10 > 100 µM | SF-295 > 100 µM | M14 > 100 µM | SF-268 > 100 µM | KM12 > 100 µM | CAKI-1 > 100 µM
> 100 µM: HCT-15
